From patent US5980913A, “Peptides having immunomodulatory activity” (Biochem Pharma, Inc., priority 1994, dated 1999)
Where a SMILES comes first, the peptide text is derived from it. [ ]: non-standard residue; d: D form.

Tested on: spleen cell subsets (cell surface antigens)
Test: In vivo/ex vivo immunophenotyping in the spleen, mice treated 4 consecutive days
Design: species or system C57BL/6 mice
Method: C57BL.backslash.6 mice are treated with 0, 50, 100, 200, and 300 mg/kg of drug (in saline) for 4 consecutive days. Blood is taken by cardiac puncture on day 5, and the lymphocytes are isolated from spleen in the following manner:
The spleen is aseptically removed and mashed by pressing against a steel strainer with a rubber plunger. The cell suspension is separated from the clumps by letting them settle at the bottom of the tube. The cell suspension is then separated on a Lymphocyte M layer and the interface is recovered and resuspended in media.
1. Immunophenotyping (blood and spleen)
Cell immunophenotyping is performed on blood and spleen. The following cell surface antigens are analyzed:
CD4 (T helper/inducer, binds class II-restricted T cells);
CD8 (cytotoxic T cells, CTL adhesion);
MAC-1 (monocyte/macrophage);
NK (natural killer cells);
CD45 (all leukocytes, protein tyrosine phosphatase).

Q: What does the source list for `NCCCC[C@@H](N)C(=O)N[C@@H](CC(N)=O)C(=O)N1CCC[C@H]1C(=O)N[C@@H](Cc1ccc(O)cc1)C(=O)O` [PEPTIDE #5, H-(D-Lys)-Asn-Pro-Tyr-OH] (H-[dK]NPY-OH)?
A: CD4+ CD8+ cell subset, relative percentage, MEAN (50 mg/kg, first assay): 0.58; CD4+ CD8- cell subset, relative percentage, MEAN (50 mg/kg, first assay): 33.05; CD4+ CD11b+ cell subset, relative percentage, MEAN (50 mg/kg, first assay): 0.83; CD4+ CD11b- cell subset, relative percentage, MEAN (50 mg/kg, first assay): 23.88; CD4- CD8+ cell subset, relative percentage, MEAN (50 mg/kg, first assay): 5.73; CD4- CD8- cell subset, relative percentage, MEAN (50 mg/kg, first assay): 60.65; CD4- CD11b+ cell subset, relative percentage, MEAN (50 mg/kg, first assay): 3.63; CD4- CD11b- cell subset, relative percentage, MEAN (50 mg/kg, first assay): 71.73; CD45+ CD4+ cell subset, relative percentage, MEAN (50 mg/kg, first assay): 21.43; CD45+ CD4- cell subset, relative percentage, MEAN (50 mg/kg, first assay): 55.25; CD45+ CD8+ cell subset, relative percentage, MEAN (50 mg/kg, first assay): 5.38; CD45+ CD8- cell subset, relative percentage, MEAN (50 mg/kg, first assay): 66.00; CD45- CD4+ cell subset, relative percentage, MEAN (50 mg/kg, first assay): 13.28; CD45- CD4- cell subset, relative percentage, MEAN (50 mg/kg, first assay): 10.03; CD45- CD8+ cell subset, relative percentage, MEAN (50 mg/kg, first assay): 0.63; CD45- CD8- cell subset, relative percentage, MEAN (50 mg/kg, first assay): 28.05; Ly5(B) cell subset, relative percentage, MEAN (50 mg/kg, first assay): 57.85; NK+ CD3+ cell subset, relative percentage, MEAN (50 mg/kg, first assay): 1.50; NK+ CD3- cell subset, relative percentage, MEAN (50 mg/kg, first assay): 3.78; NK- CD3+ cell subset, relative percentage, MEAN (50 mg/kg, first assay): 38.13; NK- CD3- cell subset, relative percentage, MEAN (50 mg/kg, first assay): 56.68; TCR(T) cell subset, relative percentage, MEAN (50 mg/kg, first assay): 40.23; CD4+ CD8+ cell subset, relative percentage, MEAN (50 mg/kg, second assay): 0.63; CD4+ CD8- cell subset, relative percentage, MEAN (50 mg/kg, second assay): 36.53; CD4+ CD11b+ cell subset, relative percentage, MEAN (50 mg/kg, second assay): 0.38; CD4+ CD11b- cell subset, relative percentage, MEAN (50 mg/kg, second assay): 14.85; CD4- CD8+ cell subset, relative percentage, MEAN (50 mg/kg, second assay): 5.85; CD4- CD8- cell subset, relative percentage, MEAN (50 mg/kg, second assay): 57.03; CD4- CD11b+ cell subset, relative percentage, MEAN (50 mg/kg, second assay): 3.60; CD4- CD11b- cell subset, relative percentage, MEAN (50 mg/kg, second assay): 81.15; CD45+ CD4+ cell subset, relative percentage, MEAN (50 mg/kg, second assay): 29.23; CD45+ CD4- cell subset, relative percentage, MEAN (50 mg/kg, second assay): 49.85; CD45+ CD8+ cell subset, relative percentage, MEAN (50 mg/kg, second assay): 6.03; CD45+ CD8- cell subset, relative percentage, MEAN (50 mg/kg, second assay): 75.15; CD45- CD4+ cell subset, relative percentage, MEAN (50 mg/kg, second assay): 8.83; CD45- CD4- cell subset, relative percentage, MEAN (50 mg/kg, second assay): 12.05; CD45- CD8+ cell subset, relative percentage, MEAN (50 mg/kg, second assay): 0.18; CD45- CD8- cell subset, relative percentage, MEAN (50 mg/kg, second assay): 18.65; Ly5(B) cell subset, relative percentage, MEAN (50 mg/kg, second assay): 41.20; NK+ CD3+ cell subset, relative percentage, MEAN (50 mg/kg, second assay): 2.18; NK+ CD3- cell subset, relative percentage, MEAN (50 mg/kg, second assay): 3.83; NK- CD3+ cell subset, relative percentage, MEAN (50 mg/kg, second assay): 39.60; NK- CD3- cell subset, relative percentage, MEAN (50 mg/kg, second assay): 54.38; TCR(T) cell subset, relative percentage, MEAN (50 mg/kg, second assay): 51.58; CD4+ CD8+ cell subset, relative percentage, MEAN (100 mg/kg, first assay): 0.70; CD4+ CD8- cell subset, relative percentage, MEAN (100 mg/kg, first assay): 36.85; CD4+ CD11b+ cell subset, relative percentage, MEAN (100 mg/kg, first assay): 0.95; CD4+ CD11b- cell subset, relative percentage, MEAN (100 mg/kg, first assay): 23.73; CD4- CD8+ cell subset, relative percentage, MEAN (100 mg/kg, first assay): 7.03; CD4- CD8- cell subset, relative percentage, MEAN (100 mg/kg, first assay): 55.50; CD4- CD11b+ cell subset, relative percentage, MEAN (100 mg/kg, first assay): 4.10; CD4- CD11b- cell subset, relative percentage, MEAN (100 mg/kg, first assay): 71.23; CD45+ CD4+ cell subset, relative percentage, MEAN (100 mg/kg, first assay): 23.25; CD45+ CD4- cell subset, relative percentage, MEAN (100 mg/kg, first assay): 52.10; CD45+ CD8+ cell subset, relative percentage, MEAN (100 mg/kg, first assay): 6.43; CD45+ CD8- cell subset, relative percentage, MEAN (100 mg/kg, first assay): 63.43; CD45- CD4+ cell subset, relative percentage, MEAN (100 mg/kg, first assay): 15.35; CD45- CD4- cell subset, relative percentage, MEAN (100 mg/kg, first assay): 9.30; CD45- CD8+ cell subset, relative percentage, MEAN (100 mg/kg, first assay): 0.83; CD45- CD8- cell subset, relative percentage, MEAN (100 mg/kg, first assay): 29.30; Ly5(B) cell subset, relative percentage, MEAN (100 mg/kg, first assay): 56.75; NK+ CD3+ cell subset, relative percentage, MEAN (100 mg/kg, first assay): 1.83; NK+ CD3- cell subset, relative percentage, MEAN (100 mg/kg, first assay): 3.88; NK- CD3+ cell subset, relative percentage, MEAN (100 mg/kg, first assay): 38.38; NK- CD3- cell subset, relative percentage, MEAN (100 mg/kg, first assay): 55.95; TCR(T) cell subset, relative percentage, MEAN (100 mg/kg, first assay): 39.83; CD4+ CD8+ cell subset, relative percentage, MEAN (100 mg/kg, second assay): 0.53; CD4+ CD8- cell subset, relative percentage, MEAN (100 mg/kg, second assay): 31.78; CD4+ CD11b+ cell subset, relative percentage, MEAN (100 mg/kg, second assay): 0.33; CD4+ CD11b- cell subset, relative percentage, MEAN (100 mg/kg, second assay): 14.65; CD4- CD8+ cell subset, relative percentage, MEAN (100 mg/kg, second assay): 4.68; CD4- CD8- cell subset, relative percentage, MEAN (100 mg/kg, second assay): 63.03; CD4- CD11b+ cell subset, relative percentage, MEAN (100 mg/kg, second assay): 3.53; CD4- CD11b- cell subset, relative percentage, MEAN (100 mg/kg, second assay): 81.53; CD45+ CD4+ cell subset, relative percentage, MEAN (100 mg/kg, second assay): 26.40; CD45+ CD4- cell subset, relative percentage, MEAN (100 mg/kg, second assay): 50.20; CD45+ CD8+ cell subset, relative percentage, MEAN (100 mg/kg, second assay): 4.80; CD45+ CD8- cell subset, relative percentage, MEAN (100 mg/kg, second assay): 73.48; CD45- CD4+ cell subset, relative percentage, MEAN (100 mg/kg, second assay): 6.83; CD45- CD4- cell subset, relative percentage, MEAN (100 mg/kg, second assay): 16.60; CD45- CD8+ cell subset, relative percentage, MEAN (100 mg/kg, second assay): 0.10; CD45- CD8- cell subset, relative percentage, MEAN (100 mg/kg, second assay): 21.68; Ly5(B) cell subset, relative percentage, MEAN (100 mg/kg, second assay): 48.28; NK+ CD3+ cell subset, relative percentage, MEAN (100 mg/kg, second assay): 2.25; NK+ CD3- cell subset, relative percentage, MEAN (100 mg/kg, second assay): 4.10; NK- CD3+ cell subset, relative percentage, MEAN (100 mg/kg, second assay): 28.65; NK- CD3- cell subset, relative percentage, MEAN (100 mg/kg, second assay): 65.05; TCR(T) cell subset, relative percentage, MEAN (100 mg/kg, second assay): 40.33; CD4+ CD8+ cell subset, relative percentage, MEAN (200 mg/kg, first assay): 0.63; CD4+ CD8- cell subset, relative percentage, MEAN (200 mg/kg, first assay): 33.73; CD4+ CD11b+ cell subset, relative percentage, MEAN (200 mg/kg, first assay): 1.00; CD4+ CD11b- cell subset, relative percentage, MEAN (200 mg/kg, first assay): 22.65; CD4- CD8+ cell subset, relative percentage, MEAN (200 mg/kg, first assay): 5.68; CD4- CD8- cell subset, relative percentage, MEAN (200 mg/kg, first assay): 60.00; CD4- CD11b+ cell subset, relative percentage, MEAN (200 mg/kg, first assay): 3.58; CD4- CD11b- cell subset, relative percentage, MEAN (200 mg/kg, first assay): 72.00; CD45+ CD4+ cell subset, relative percentage, MEAN (200 mg/kg, first assay): 21.18; CD45+ CD4- cell subset, relative percentage, MEAN (200 mg/kg, first assay): 54.03; CD45+ CD8+ cell subset, relative percentage, MEAN (200 mg/kg, first assay): 5.28; CD45+ CD8- cell subset, relative percentage, MEAN (200 mg/kg, first assay): 64.83; CD45- CD4+ cell subset, relative percentage, MEAN (200 mg/kg, first assay): 14.33; CD45- CD4- cell subset, relative percentage, MEAN (200 mg/kg, first assay): 10.48; CD45- CD8+ cell subset, relative percentage, MEAN (200 mg/kg, first assay): 0.55; CD45- CD8- cell subset, relative percentage, MEAN (200 mg/kg, first assay): 29.35; Ly5(B) cell subset, relative percentage, MEAN (200 mg/kg, first assay): 59.50; NK+ CD3+ cell subset, relative percentage, MEAN (200 mg/kg, first assay): 1.95; NK+ CD3- cell subset, relative percentage, MEAN (200 mg/kg, first assay): 3.88; NK- CD3+ cell subset, relative percentage, MEAN (200 mg/kg, first assay): 35.70; NK- CD3- cell subset, relative percentage, MEAN (200 mg/kg, first assay): 58.50; TCR(T) cell subset, relative percentage, MEAN (200 mg/kg, first assay): 37.30; CD4+ CD8+ cell subset, relative percentage, MEAN (200 mg/kg, second assay): 0.55; CD4+ CD8- cell subset, relative percentage, MEAN (200 mg/kg, second assay): 36.13; CD4+ CD11b+ cell subset, relative percentage, MEAN (200 mg/kg, second assay): 0.33; CD4+ CD11b- cell subset, relative percentage, MEAN (200 mg/kg, second assay): 13.10; CD4- CD8+ cell subset, relative percentage, MEAN (200 mg/kg, second assay): 4.95; CD4- CD8- cell subset, relative percentage, MEAN (200 mg/kg, second assay): 58.40; CD4- CD11b+ cell subset, relative percentage, MEAN (200 mg/kg, second assay): 3.20; CD4- CD11b- cell subset, relative percentage, MEAN (200 mg/kg, second assay): 78.38; CD45+ CD4+ cell subset, relative percentage, MEAN (200 mg/kg, second assay): 29.00; CD45+ CD4- cell subset, relative percentage, MEAN (200 mg/kg, second assay): 52.45; CD45+ CD8+ cell subset, relative percentage, MEAN (200 mg/kg, second assay): 5.08; CD45+ CD8- cell subset, relative percentage, MEAN (200 mg/kg, second assay): 78.23; CD45- CD4+ cell subset, relative percentage, MEAN (200 mg/kg, second assay): 8.63; CD45- CD4- cell subset, relative percentage, MEAN (200 mg/kg, second assay): 9.98; CD45- CD8+ cell subset, relative percentage, MEAN (200 mg/kg, second assay): 0.13; CD45- CD8- cell subset, relative percentage, MEAN (200 mg/kg, second assay): 16.60; Ly5(B) cell subset, relative percentage, MEAN (200 mg/kg, second assay): 46.50; NK+ CD3+ cell subset, relative percentage, MEAN (200 mg/kg, second assay): 2.35; NK+ CD3- cell subset, relative percentage, MEAN (200 mg/kg, second assay): 4.35; NK- CD3+ cell subset, relative percentage, MEAN (200 mg/kg, second assay): 32.15; NK- CD3- cell subset, relative percentage, MEAN (200 mg/kg, second assay): 61.10; TCR(T) cell subset, relative percentage, MEAN (200 mg/kg, second assay): 47.23
